From patent US6406843B1, “Poultry virus isolates and method” (University of Arkansas, priority 1998, dated 2002)

Experiments:
Format in all cases: in vivo, chicken
[1] = system: SPF white leghorn chickens; assay: Antigen Capture ELISA (AC-ELISA) for IBDV in tissue homogenates of challenged birds; conditions: challenge at 28 d post hatch ± REO S-1133 and/or copper sulfate 1 lb/ton
Description: On days 4 and 11 post challenge 10 birds were necropsied from each virus challenge group as well as an additional 10 birds from the negative control. Each bird was weighed, bled, and euthanized with CO2 gas. All bursae and proventriculi were scored for the presence of gross lesions during necropsy. The bursa, spleen, and proventriculus were individually weighed and weights recorded. Tissues from each of the first five birds were cut in half, with one half being placed into 10% buffered formalin, and the other half being placed into a sterile sampling bag (Fisher Scientific, Pittsburgh, Pa.). All tissues were pooled by organ and experimental treatment group into the buffered formalin and into the sampling bags. Tissues from the remaining five birds were placed only in the sterile sampling bags. Tissues in sterile sampling bags were frozen at −20° C. for later analysis utilizing Antigen Capture ELISA (AC-ELISA), as described by Snyder et al (11).
Monoclonal antibody B-29 (University of Maryland, College Park, Md., Intervet Inc. , Millsboro, Del.) was diluted 1:10 in ice cold sterile distilled water. The solution was then acidified by the addition of 0.4 N sulfuric acid. The acidified monoclonal solution was incubated in an ice bath for one hour […]. Following incubation the acidified monoclonal antibody was diluted in 200 ml of coating buffer bringing the final dilution of monoclonal antibody to 1:10,000. ELISA optimized 96 well microtiter plates Corning #25805-96 (Corning Glass Works, Corning N.Y. 14831) were coated with 100 μl per well of a 1:10,000 dilution of monoclonal antibody B-29 (University of Maryland, College Park, Md.; Intervet, Inc., Millsboro Del.) ascitic fluid in coating buffer (Appendix). Plates were covered with individual plate sealers (Dynatech, Chantilly Va.), and incubated for 2 hours at 37° C. and then overnight at 4° C. Coated plates were washed three times with washing buffer (Appendix), with residual fluid being tapped out. Plates were allowed to air dry at room temperature and were then covered with individual plate sealers and stored at −20° C. until needed.
Infectious bursal disease virus suspect tissues were homogenized in AC-ELISA dilution buffer (Appendix) at a ratio of 1:5 or approximately 20% tissue weight to volume. Homogenization was accomplished by use of a rubber mallet, followed by the addition of the dilution buffer. One hundred fifty μl of each bursal homogenate and 300 μl of each proventricular homogenate were placed in duplicate in a 96 well round bottom plate. The concentration of the bursa tissue was adjusted by addition of 150 μl of AC-ELISA dilution buffer. There was no additional dilution to the proventriculus tissue homogenates. […]

[2] = system: SPF white leghorn chickens; assay: Microscopic (histopathological) lesions in bursa and proventriculus; conditions: for Microscopic lesions in the bursa, samples with lesions/screened / Microscopic lesions in the proventriculus, samples with lesions/screened: challenge at 28 d post hatch ± REO S-1133 and/or copper sulfate
Description: Tissues were placed in 10% buffered formalin at necropsy. Twenty-four hours later tissues were removed and manually trimmed to a thickness of ⅛ inch and placed in tissue cassettes. Tissues were dehydrated through graded alcohols, and cleared in two changes of toluene. Tissues were then infiltrated with paraffin over a 16-hour period using an autoprocessor. Following paraffin infiltration, tissues were positioned in paraffin blocks and trimmed to expose a uniform tissue face. Prepared tissue blocks were stored at −20° C. until ready to be sectioned. Sections were cut at a thickness of 5μm and floated on a water bath containing 5% gelatin before they were placed on standard 1×3 inch slides. Tissue sections were then stained using the standard method of Harris (41), for hematoxylin and eosin.
Tissues were examined microscopically for the presence of histopathological lesions induced by IBDV infection. […] Lesions in the bursa were predominantly lymphoid depletion with accompanied follicle degeneration Tissues were given a numerical index score based on the presence or absence of lesions as well as the intensity of the lesions. The scores ranged from a low of “0” which indicates no lesions or pathology observed to a high of “4” which indicates extensive tissue damage.
(§1) Tissues were placed in buffered formalin at necropsy, and processed twenty-four hours later by the method described in Section 1 (55). Tissues were examined for the presence of histopathological lesions induced by IBDV infection. Lesions in the lamina propria of the proventriculus were predominantly pleomorphism of the lymphoid cells in the mucosa along with lymphocyte depletion. Lesions in the bursa were predominantly lymphoid depletion with accompanied follicle degeneration.
(§2) Tissues were given a numerical index score based on the presence or absence as well as the intensity of the lesions present. The score ranged from a low of “0” which indicates no lesions or pathology observed to a high of “4” which indicates extensive tissue damage.
Tissues were placed in buffered formalin at necropsy, and processed twenty-four hours later by the method described in Section 1 (55). Tissues were examined for the presence of histopathological lesions induced by IBDV infection. Tissues were given a numerical index score based on the presence or absence as well as the intensity of the lesions present. The score ranged from a low of “0” which indicates no lesions or pathology observed to a high of “4” which indicates extensive tissue damage.
Tissues were placed in buffered formalin at necropsy, and processed twenty-four hours later by the method described in Section 1 (55). Tissues were examined for the presence of histopathological lesions induced by IBDV infection.

[3] = system: SPF white leghorn chickens; assay: Body weight after virus challenge
Description: (§3) On days 4 and 11 post challenge 10 birds were necropsied from each virus challenge group and an additional 10 birds from the negative control. Each bird was weighed, bled, and euthanized by CO2 asphyxiation. All birds were necropsied at which time the bursa, and proventriculus were scored for the presence of gross lesions. The bursa, spleen, and proventriculus were individually weighed and results recorded. Tissues from each of the birds were cut in half, with one half being placed into 10% buffered formalin, and the other half being placed into a sterile sampling bag (Fisher Scientific, Pittsburgh, Pa.). Tissues in sterile sampling bags were frozen at −20° C. for later analysis utilizing IBDV Antigen Capture ELISA(AC-ELISA), as described by Snyder et al (138).
All data was entered into Microsoft™ Excel (Microsoft Corp., Redmond, Wash.). and were analyzed using SAS (10) (SAS Institute Inc., Cary, N.C.). Statistical significance was determined at the P<0.05 level using General Linear Models Procedure and least squared means for body weight, bursa: body weight ratios, spleen: body weight ratios, and proventriculus: body weight ratios. In addition, statistical differences were determined for means of the numerical index scores for gross lesions in the bursa and proventriculus.

[4] = system: SPF white leghorn chickens; assay: TUNEL staining for apoptotic cells in bursa and proventriculus; design: key: + indicates the presence of specific fluorescence following TUNEL staining; ++: multiple “+'s” indicate visual intensity assessment; +++: multiple “+'s” indicate visual intensity assessment; ++++: multiple “+'s” indicate visual intensity assessment; −: scored as positive when present and negative when absent; conditions: 4 days post challenge
Description: Formalin fixed tissues from experiments described in Section 3 were utilized in this staining procedure. All tissues utilized were harvested at 4 days post challenge with a 1× concentration of USDA/STC IBDV or Variant E/11084 IBDV. Tissues from specific birds were selected following an initial screening with hematoxylin and eosin stained sections. Tissue preparation and sectioning were as follows. Tissues were placed in 10% buffered formalin at necropsy. Twenty-four hours later tissues were removed, manually trimmed to a thickness of ⅛ inch and placed in tissue cassettes. Tissues were dehydrated through graded alcohols and cleared in two changes of toluene. Tissues were then infiltrated with paraffin over a 16 hour period using an autoprocessor. Following paraffin infiltration, tissues were positioned in paraffin blocks and trimmed to expose a uniform tissue face. Prepared tissue blocks were stored at −20° C. until ready to be sectioned. Sections were cut at a thickness of 5 μm and floated on a water bath containing 5% gelatin to facilitate attachment (55). […]
Tissue sections were prepared as described earlier and removed from storage at 4° C. […] Slides were stored at 4° C. overnight before viewing for the presence of fluorescence. Slides were viewed using an Olympus BX50 microscope equipped with a Olympus PM-C35X camera and Omega dye specific fluorescence filters (DAPI 385-395) (FITC 475-497). […]

[5] = system: commercial broiler chickens; assay: AC-ELISA for IBDV in tissue homogenates of challenged broilers; conditions: broilers challenged 35 d post hatch
Procedure: Broiler chickens were challenged or, day 35 post hatch (PH) with the USDA/STC IBDV prepared inoculum as described previously. Infectious bursal disease virus challenge was administered to each individual bird bilaterally to the eye (30 μl per eye) using an Eppendorf micropipettor (Brinkmann Inc., Westbury, N.Y.) and a sterile pipette tip (Costar Corp., Cambridge, Mass.).
as §3, with “challenge 25” for “challenge 10”, “the bursa” for “the bursa,”
AC-ELISA test plates were prepared as described earlier in Section 1. Tissues were homogenized in AC-ELISA dilution buffer at a ratio of 1:5 tissue weight to volume. Homogenates were analyzed in duplicate against IBDV monoclonal B-29 AC-ELISA plates as described earlier in Section 1. Plates were read and means were calculated for the paired samples within each group and the homogenates were determined to be positive or negative based on the mean absorbance values as compared to the negative and positive controls on each plate.

[6] = system: commercial broiler chickens; assay: Microscopic lesions in bursa and proventriculus of broilers; conditions: broilers challenged 35 d post hatch
Description: as §1, §2

O=S(=O)([O-])[O-].[Cu+2] [NC + CS, copper sulfate]
AC-ELISA bursal homogenates, positive/tested ([1]; day 4 post challenge): 0/10
AC-ELISA proventricular homogenates, positive/tested ([1]; day 4 post challenge): 0/10
AC-ELISA bursal homogenates, positive/tested ([1]; day 11 post challenge): 0/10
AC-ELISA proventricular homogenates, positive/tested ([1]; day 11 post challenge): 0/10
Microscopic lesions in the bursa, samples with lesions/screened ([2]; day 4 post challenge): 0/10
Microscopic lesions in the proventriculus, samples with lesions/screened ([2]; day 4 post challenge): 0/10
Microscopic lesions in the bursa, samples with lesions/screened ([2]; day 11 post challenge): 0/10
Microscopic lesions in the proventriculus, samples with lesions/screened ([2]; day 11 post challenge): 0/10
Lesions in the proventriculus, gross or microscopic ([2]; dietary copper levels used, without virus): no lesions in the proventriculus either gross or microscopic
Body weight gain vs negative control ([3]; between day 4 and day 11 post challenge): significantly lower
Day 11 body weight means vs negative control ([3]; day 11 post challenge): significantly different
TUNEL staining, bursa [4]: −
TUNEL staining, proventriculus [4]: −
AC-ELISA bursal homogenates, positive/tested ([5]; day 4 post challenge): 0/10
AC-ELISA proventricular homogenates, positive/tested ([5]; day 4 post challenge): 0/10
AC-ELISA bursal homogenates, positive/tested ([5]; day 11 post challenge): 0/10
AC-ELISA proventricular homogenates, positive/tested ([5]; day 11 post challenge): 0/10
Microscopic lesions in the bursa ([6]; day 4 post challenge): 0/10
Microscopic lesions in the proventriculus ([6]; day 4 post challenge): 0/10
Microscopic lesions in the bursa ([6]; day 11 post challenge): 9/10
Microscopic lesions in the proventriculus ([6]; day 11 post challenge): 0/10
